From article PMC6294118 (Pharmaceutical research, 2018)

Key:
hOCT2 = target: T1, hOCT2 (Homo sapiens, UniProt O15244); test: Inhibition of hOCT2-mediated morphine uptake in HEK293-hOCT2 cells; assay type: cell-based; conditions: for Cmax,unbound/IC50 (hOCT2): ratio of literature Cmax,unbound to hOCT2 IC50
T1 sequence (O15244 1-555): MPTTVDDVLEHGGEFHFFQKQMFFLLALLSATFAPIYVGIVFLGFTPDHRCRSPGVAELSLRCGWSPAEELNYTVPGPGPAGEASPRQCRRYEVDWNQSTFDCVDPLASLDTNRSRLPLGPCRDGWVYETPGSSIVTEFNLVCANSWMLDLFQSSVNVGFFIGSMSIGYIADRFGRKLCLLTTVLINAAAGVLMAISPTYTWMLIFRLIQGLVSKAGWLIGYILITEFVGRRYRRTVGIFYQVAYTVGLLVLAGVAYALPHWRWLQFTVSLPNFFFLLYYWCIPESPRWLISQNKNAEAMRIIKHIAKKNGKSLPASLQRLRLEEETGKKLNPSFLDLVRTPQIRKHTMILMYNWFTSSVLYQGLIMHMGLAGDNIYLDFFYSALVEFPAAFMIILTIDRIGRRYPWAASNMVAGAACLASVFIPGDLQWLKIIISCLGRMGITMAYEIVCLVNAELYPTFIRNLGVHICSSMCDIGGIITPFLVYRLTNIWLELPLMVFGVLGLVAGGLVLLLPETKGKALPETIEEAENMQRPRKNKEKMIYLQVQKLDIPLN

hOCT1 [1] = target: T2, hOCT1 (Homo sapiens, UniProt O15245); conditions: for Cmax,unbound/IC50 (hOCT1): ratio of literature Cmax,unbound to hOCT1 IC50; for Cmax,unbound/IC50 (hOCT1, second ratio column): ratio to hOCT1 IC50, the values fit Cmax port,unbound/IC50
T2 sequence (O15245 1-554): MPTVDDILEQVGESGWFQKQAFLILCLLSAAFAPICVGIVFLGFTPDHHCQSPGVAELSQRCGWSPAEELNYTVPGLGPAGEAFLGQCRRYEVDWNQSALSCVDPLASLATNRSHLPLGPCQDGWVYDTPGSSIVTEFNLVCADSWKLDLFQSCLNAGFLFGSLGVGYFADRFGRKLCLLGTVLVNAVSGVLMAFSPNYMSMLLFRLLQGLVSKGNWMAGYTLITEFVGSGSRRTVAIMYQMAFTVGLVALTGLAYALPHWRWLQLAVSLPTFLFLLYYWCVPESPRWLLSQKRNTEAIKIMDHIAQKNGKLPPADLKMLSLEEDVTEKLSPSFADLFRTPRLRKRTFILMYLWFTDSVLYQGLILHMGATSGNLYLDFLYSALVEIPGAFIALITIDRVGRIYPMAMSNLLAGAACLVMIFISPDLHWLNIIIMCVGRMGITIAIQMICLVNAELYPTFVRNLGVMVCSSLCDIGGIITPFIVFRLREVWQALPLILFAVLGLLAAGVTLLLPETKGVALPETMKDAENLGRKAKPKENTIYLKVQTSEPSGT

hOCT1 [2] = target: T2, hOCT1; test: cell-based
[3] = cited from earlier work; for Cmax port,unbound (maximal unbound plasma concentration in the portal vein): in vivo

Structure (SMILES): CN(C)CCC=C1c2ccccc2CCc2ccccc21 [Amitriptyline, amitriptyline]
- IC50 (hOCT2): 410 ± 50 nM
- Cmax,unbound/IC50 (hOCT2) (hOCT2): 0.02
- Cmax,unbound/IC50 (hOCT1) (hOCT1 [1]): 0.005
- Cmax,unbound/IC50 (hOCT1, second ratio column) (hOCT1 [1]): 2.28
- IC50 (hOCT1 [2]): 1890 ± 770 nM
- Cmax port,unbound (maximal unbound plasma concentration in the portal vein) [3]: 4300 nM

Structure (SMILES): CNCCC(Oc1ccc(C(F)(F)F)cc1)c1ccccc1 (stereo not drawn) [Fluoxetine, fluoxetine]
- IC50 (hOCT2): 3320 ± 760 nM
- Cmax,unbound/IC50 (hOCT2) (hOCT2): 0.003
- Cmax,unbound/IC50 (hOCT1) (hOCT1 [1]): 0.001
- Cmax,unbound/IC50 (hOCT1, second ratio column) (hOCT1 [1]): 0.08
- IC50 (hOCT1 [2]): 9060 ± 3240 nM
- Cmax port,unbound (maximal unbound plasma concentration in the portal vein) [3]: 700 nM

Structure (SMILES): CN(C)CCCN1c2ccccc2CCc2ccccc21 [Imipramine, imipramine]
- IC50 (hOCT1 [2]): 4030 ± 1620 nM
- Cmax port,unbound (maximal unbound plasma concentration in the portal vein) [3]: 4500 nM

Structure (SMILES): CCc1c2c(nc3ccc(OC(=O)N4CCC(N5CCCCC5)CC4)cc13)-c1cc3c(c(=O)n1C2)COC(=O)[C@]3(O)CC [Irinotecan, irinotecan]
- IC50 (hOCT1 [2]): 1360 ± 430 nM

Structure (SMILES): Cc1nccn1CC1CCc2c(c3ccccc3n2C)C1=O (stereo not drawn) [Ondansetron, ondansetron]
- IC50 (hOCT1 [2]): 270 ± 100 nM
- Cmax port,unbound (maximal unbound plasma concentration in the portal vein) [3]: 80 nM

Structure (SMILES): CN1CC[C@]23c4c5ccc(O)c4O[C@H]2[C@@H](O)C=C[C@H]3[C@H]1C5 [morphine]
- Fraction of dose excreted as unchanged morphine in urine [3]: approximately 10%
